Measured values taken from US9648880B2, “Antifungal agents and uses thereof” (University of Massachusetts, priority 2012, dated 2017).
“Also recorded” adds a separate entry of the source.

Columns and labels:
[1] = system: C. albicans SC5314 on excised murine vaginal mucosal tissue; assay: ex vivo mouse vaginal mucosal infection (VVC); settings: 24 h
Method: FIG. 6A-6B. Effects on metazoan hosts. FIG. 6A is a graph showing the lifespan of C. elegans exposed to C. albicans treated with 12.5 μM compound #4 (lower graph line) or 12.5 μM fluconazole (upper graph line) compared to untreated (middle graph line). […] FIG. 6B is a series of photographs showing microscopic analysis of ex vivo vaginal mucosal biofilm formation. Mice were administered estrogen and vaginae were harvested. Tissues were either uninfected, or pretreated with DMSO or 50 μM compound #4, and then inoculated with C. albicans SC5314 (10^6 blastoconidia) and incubated for 24 h. Tissues were bisected and processed for scanning electron microscopy (SEM), or confocal microscopy (CM) after staining with Calcofluor to detect yeast (blue) and Concavalin A to visualize extracellular matrix (red). SEM images were taken at 1000× magnification, and CM images at 600× magnification.
In this assay, excised murine vaginal mucosal tissue is tested as a substrate for infection by Candida cells, providing a rapid and simple method for optimizing treatment conditions prior to in vivo infection assays. The other readout in the assay is a measure of the number of viable fungal cells, expressed as colony forming units (CFU).
These ex vivo infections were performed as described (Harriott, 2010).

C. albicans SC5314-GFP = assay: GFP-based adhesion assay; assay type: cell-based; settings: Candida albicans, SC5314, read-out: IC50 in the GFP-based adhesion assay
Method: To do this, we measured adhesion of cells plated and washed as before, but here using a C. albicans strain encoding GFP. This allowed us to measure adhesion both in a fluorescence plate reader and by microscopy (FIGS. 1D and 1E). Indeed, these GFP-based assays confirmed that all the compounds effective at 25 μM in the alamarBlue-based assay impair C. albicans adhesion to polystyrene. We conclude that our chemical screen detected multiple compounds that block adhesion to polystyrene, and that these can be assayed via multiple detection methods.
SC5314-GFP and edt1^−/−-GFP strains were pregrown overnight in SC+0.2% glucose media at 30° C., diluted into fresh SC+0.2% glucose media to a final concentration of 5×10^6 cells/ml (equivalent to 0.5 OD600/ml) and plated onto Immulon 2HB 96-well plates, with each well receiving 0.1 OD of cells. DMSO or compounds resuspended in DMSO were added to the desired final concentration (1% vol/vol of DMSO was maintained). Plates were then incubated for 4 hours at 37° C. […] Fluorescence was measured using a Synergy HT plate reader (BioTek) following addition of […] of PBS/well. For each experiment, untagged SC5314 was analyzed simultaneously to determine background fluorescence that was subtracted from the signal from each well.

[2] = system: fluconazole-resistant C. albicans strains; assay: fluconazole synergy assay; assay type: cell-based, Candida albicans; settings: 24 hrs, 37° C.; alamarBlue without wash
Method: FIGS. 10A-10B. […] Candida strains were identified from AIDS patients (3919, an initial progenitor isolate, and the subsequently isolated 4617 and 4639 strains). These were coincubated in the presence of either compounds #4, #Q1, fluconazole alone or a combination of fluconazole with either #4 or #Q1 for 24 hrs in polystyrene plates at 37° C. Viability was assessed using alamarBlue reagent as described (Youngsaye, supra).
Finally, we tested whether compound #4 would inhibit growth of fluconazole-resistant C. albicans strains in the presence of low levels of fluconazole, because that is the activity described for compound Q1 (Youngsaye supra). To measure cell viability rather than adhesion, we performed alamarBlue-based viability measurements without wash steps, using fluconazole-resistant C. albicans strains obtained from an AIDS patient who had been treated with fluconazole for oral candidaisis (Bachmann, 2002).
Assays to test for synergies between compound #4 and fluconazole were performed as described (Youngsaye, 2011, supra), except we used a 96-well rather than a 384-well format. […] At the end of 24 hours of incubation, viability was evaluated without washing steps, using alamarBlue as previously described (Youngsaye, 2011, supra).

[3] = system: C. albicans hyphae formation; assay: filamentation assay (hyphal morphogenesis); assay type: cell-based, Candida albicans; settings: 50 μM overlay; 37° C., 2 days
[4] = system: C. elegans infected with C. albicans; assay: C. elegans pathogenesis assay; assay type: in vivo, Caenorhabditis elegans; settings: 12.5 μM
Method: We therefore tested whether compound #4 can alter fungal infections in two in vivo settings. First, we performed pathogenesis assays in which nematodes (Caenorhabditis elegans) are infected with C. albicans, resulting in killing of the nematode host (Jain, 2009; Okoli, 2009). We used this assay to test whether compound #4 might have a protective effect, exposing C. elegans to Candida albicans and either DMSO vehicle, the commonly used antifungal drug fluconazole at 12.5 μM, or compound #4 at the same concentration. […] Therefore, consistent with its in vitro activities, compound #4 functions as an antifungal agent in this model infection system.
Three worms in the L3/L4 stage were transferred to each of two NGM agar plates containing E. coli OP50 and grown at 20° C. for four days. On the day of the experiment, worms were washed off the plates with M9 buffer and centrifuged at 900×g for 2 min. The supernatant was removed, and the worms were then resuspended in a bleach solution (1:4 dilution of commercial bleach (5.25%) diluted in 0.25 M sodium hydroxide). The worm suspension was mixed gently by inversion for 3 min, and centrifuged for 2 min at 2,000×g. The pellet containing the eggs was washed with M9 buffer and centrifuged at 2,000×g for 2 min and then resuspended in 500 μl M9 buffer. […]

Structure (SMILES): Cc1ccc(C(=O)N2CCN(c3ccc([N+](=O)[O-])cc3)CC2)cc1Cl [Compound 4]
- CFU recovered ([1]; 50 μM pretreatment): did not observe significant differences
- extracellular matrix (Concavalin A staining) ([1]; 50 μM): still formed a carbohydrate-rich extracellular matrix
- hyphae formation or ECM production ([1]; 50 μM): only partially inhibits hyphae formation or ECM production
- IC50 (C. albicans SC5314-GFP): ~3 µM
- viability/growth of fluconazole-resistant strains, alone or with low fluconazole [2]: did not affect fluconazole-resistant C. albicans viability, whether alone or in the presence of fluconazole
- wrinkled colony morphology on solid Spider media [3]: abolished
- lifespan of infected worms [4]: significantly increased survival; also recorded: increased the lifespan of the infected worms
